Assay results from PubChem BioAssay AID1963854 (Molecular Pharmacology Branch, DTP, NCI, 2024).
pIC50: −log10 of the molar value.

Tested on: 186277-243-T-J2-PDC complex spheroid viability
Assay: Anticancer human tumor 186277-243-T-J2-PDC patient-derived colon adenocarcinoma cell line growth inhibition [POLQ]
Details: for pIC50: curve of first compound; for viability, T/C: stronger effect = lower value; active = viability on the fitted dose curve at most 10% of control; inactive = the rest
Procedure, shortened: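 Three-cell-type spheroids modelling solid tumor plus stroma served as the readout system; POL inhibitors were tested individually and in combination, concentration ranges set by clinical Cmax where known.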

[1] = second compound 0.0316 µM, first compound 0.0316 µM
[2] = second compound 0.0316 µM, first compound 0.1 µM
[3] = second compound 0.0316 µM, first compound 0.316 µM
[4] = second compound 0.0316 µM, first compound 1 µM
[5] = second compound 0.0316 µM, first compound 3.16 µM
[6] = second compound 0.0316 µM, first compound 10 µM
[7] = second compound 0.1 µM, first compound 0.0316 µM
[8] = second compound 0.1 µM, first compound 0.1 µM
[9] = second compound 0.1 µM, first compound 0.316 µM
[10] = second compound 0.1 µM, first compound 1 µM
[11] = second compound 0.1 µM, first compound 3.16 µM
[12] = second compound 0.1 µM, first compound 10 µM
[13] = second compound 0.316 µM, first compound 0.0316 µM
[14] = second compound 0.316 µM, first compound 0.1 µM
[15] = second compound 0.316 µM, first compound 0.316 µM
[16] = second compound 0.316 µM, first compound 1 µM
[17] = second compound 0.316 µM, first compound 3.16 µM
[18] = second compound 0.316 µM, first compound 10 µM
[19] = second compound 1 µM, first compound 0.0316 µM
[20] = second compound 1 µM, first compound 0.1 µM
[21] = second compound 1 µM, first compound 0.316 µM
[22] = second compound 1 µM, first compound 1 µM
[23] = second compound 1 µM, first compound 3.16 µM
[24] = second compound 1 µM, first compound 10 µM
[25] = second compound 3.16 µM, first compound 0.0316 µM
[26] = second compound 3.16 µM, first compound 0.1 µM
[27] = second compound 3.16 µM, first compound 0.316 µM
[28] = second compound 3.16 µM, first compound 1 µM
[29] = second compound 3.16 µM, first compound 3.16 µM
[30] = second compound 3.16 µM, first compound 10 µM
[31] = second compound 10 µM, first compound 0.0316 µM
[32] = second compound 10 µM, first compound 0.1 µM
[33] = second compound 10 µM, first compound 0.316 µM
[34] = second compound 10 µM, first compound 1 µM
[35] = second compound 10 µM, first compound 3.16 µM
[36] = second compound 10 µM, first compound 10 µM
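Note: spheroids exposed to compounds for seven days.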
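Throughout, for viability, T/C: 100% = DMSO vehicle control viability.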

COc1ccc([C@@H](O)c2cc(-c3ncnc4cc(N5CCOCC5)ccc34)c(F)cc2Cl)nn1 + Cc1cccc(N(C)C(=O)C2C(O)CCN2c2nc(C)cc(C(F)(F)F)c2C#N)c1
5.23: pIC50 (second compound 0.0316 µM)
5.24: pIC50 (second compound 3.16 µM)
5.19: pIC50 (second compound 1 µM)
5.25: pIC50 (second compound 0.1 µM)
5.21: pIC50 (second compound 10 µM)
inactive: viability, T/C [1] 102% | viability, T/C [2] 105% | viability, T/C [3] 94.9% | viability, T/C [4] 110% | viability, T/C [5] 74.3% | viability, T/C [6] 29.4% | viability, T/C [7] 101% | viability, T/C [8] 112% | viability, T/C [9] 109% | viability, T/C [10] 97.9% | viability, T/C [11] 71.3% | viability, T/C [12] 28.1% | viability, T/C [13] 90.4% | viability, T/C [14] 105% | viability, T/C [15] 101% | viability, T/C [16] 104% | viability, T/C [17] 86.2% | viability, T/C [18] 30.4% | viability, T/C [19] 100% | viability, T/C [20] 107% | viability, T/C [21] 97% | viability, T/C [22] 98.1% | viability, T/C [23] 81% | viability, T/C [24] 30% | viability, T/C [25] 107% | viability, T/C [26] 114% | viability, T/C [27] 109% | viability, T/C [28] 99.4% | viability, T/C [29] 76.9% | viability, T/C [30] 26.2% | viability, T/C [31] 101% | viability, T/C [32] 102% | viability, T/C [33] 125% | viability, T/C [34] 109% | viability, T/C [35] 84.3% | viability, T/C [36] 25.1%
5.17: pIC50 (second compound 0.316 µM)

O=C(c1cc(Cc2n[nH]c(=O)c3ccccc23)ccc1F)N1CCN(C(=O)C2CC2)CC1 + COC1C(OC(N)=O)C(O)C(Oc2ccc3c(O)c(NC(=O)c4ccc(O)c(CC=C(C)C)c4)c(=O)oc3c2C)OC1(C)C
inactive: viability, T/C [1] 117% | viability, T/C [2] 105% | viability, T/C [3] 106% | viability, T/C [4] 92.3% | viability, T/C [5] 123% | viability, T/C [6] 66.7% | viability, T/C [7] 98.7% | viability, T/C [8] 102% | viability, T/C [9] 95% | viability, T/C [10] 97.3% | viability, T/C [11] 119% | viability, T/C [12] 63.2% | viability, T/C [13] 98.5% | viability, T/C [14] 111% | viability, T/C [15] 109% | viability, T/C [16] 94% | viability, T/C [17] 109% | viability, T/C [18] 66.1% | viability, T/C [19] 90.7% | viability, T/C [20] 101% | viability, T/C [21] 109% | viability, T/C [22] 102% | viability, T/C [23] 107% | viability, T/C [24] 65.9% | viability, T/C [25] 101% | viability, T/C [26] 105% | viability, T/C [27] 114% | viability, T/C [28] 90.1% | viability, T/C [29] 103% | viability, T/C [30] 63.9% | viability, T/C [31] 101% | viability, T/C [32] 91.6% | viability, T/C [33] 101% | viability, T/C [34] 115% | viability, T/C [35] 126% | viability, T/C [36] 66.2%
< 5.00: pIC50 (second compound 0.0316 µM) | pIC50 (second compound 0.1 µM) | pIC50 (second compound 0.316 µM) | pIC50 (second compound 1 µM) | pIC50 (second compound 3.16 µM) | pIC50 (second compound 10 µM)

C#Cc1c(F)ccc2cc(O)cc(-c3ncc4c(N5CC6CCC(C5)N6)nc(OCC56CCCN5CC(F)C6)nc4c3F)c12 (stereo not drawn) + Cc1cccc(N(C)C(=O)C2C(O)CCN2c2nc(C)cc(C(F)(F)F)c2C#N)c1
active: viability, T/C [4] 8.81% | viability, T/C [5] 6.82% | viability, T/C [6] 4.22% | viability, T/C [10] 9.85% | viability, T/C [11] 6.56% | viability, T/C [12] 4.18% | viability, T/C [16] 8.42% | viability, T/C [17] 6.35% | viability, T/C [18] 5.85% | viability, T/C [23] 6.21% | viability, T/C [24] 4.34% | viability, T/C [28] 6.02% | viability, T/C [29] 6.21% | viability, T/C [30] 5.42% | viability, T/C [33] 11% | viability, T/C [34] 5.4% | viability, T/C [35] 4.3% | viability, T/C [36] 3.05%
7.07: pIC50 (second compound 1 µM)
7.10: pIC50 (second compound 0.316 µM)
7.19: pIC50 (second compound 3.16 µM)
6.95: pIC50 (second compound 0.1 µM)
7.01: pIC50 (second compound 0.0316 µM)
7.48: pIC50 (second compound 10 µM)
inactive: viability, T/C [1] 81.1% | viability, T/C [2] 49.3% | viability, T/C [3] 21.4% | viability, T/C [7] 80.7% | viability, T/C [8] 53.5% | viability, T/C [9] 21.9% | viability, T/C [13] 86.9% | viability, T/C [14] 41% | viability, T/C [15] 16.9% | viability, T/C [19] 89.8% | viability, T/C [20] 43% | viability, T/C [21] 19.6% | viability, T/C [22] 11% | viability, T/C [25] 80.6% | viability, T/C [26] 30.4% | viability, T/C [27] 11.1% | viability, T/C [31] 51.6% | viability, T/C [32] 18.2%

COc1ccc([C@@H](O)c2cc(-c3ncnc4cc(N5CCOCC5)ccc34)c(F)cc2Cl)nn1 + Nc1ccc(C#CCN(C(=O)Cc2ncc(C(F)(F)F)cc2C(F)(F)F)c2ccc(F)cc2)nn1
< 5.00: pIC50 (second compound 0.0316 µM) | pIC50 (second compound 0.1 µM) | pIC50 (second compound 0.316 µM) | pIC50 (second compound 1 µM) | pIC50 (second compound 3.16 µM) | pIC50 (second compound 10 µM)
inactive: viability, T/C [1] 104% | viability, T/C [2] 109% | viability, T/C [3] 110% | viability, T/C [4] 103% | viability, T/C [5] 90.2% | viability, T/C [6] 58.5% | viability, T/C [7] 97.6% | viability, T/C [8] 106% | viability, T/C [9] 99.5% | viability, T/C [10] 96.3% | viability, T/C [11] 101% | viability, T/C [12] 67.7% | viability, T/C [13] 99.3% | viability, T/C [14] 95.6% | viability, T/C [15] 107% | viability, T/C [16] 108% | viability, T/C [17] 101% | viability, T/C [18] 60% | viability, T/C [19] 114% | viability, T/C [20] 101% | viability, T/C [21] 104% | viability, T/C [22] 95.4% | viability, T/C [23] 98.3% | viability, T/C [24] 63.8% | viability, T/C [25] 111% | viability, T/C [26] 105% | viability, T/C [27] 97.6% | viability, T/C [28] 116% | viability, T/C [29] 99.7% | viability, T/C [30] 63.2% | viability, T/C [31] 104% | viability, T/C [32] 90.6% | viability, T/C [33] 102% | viability, T/C [34] 114% | viability, T/C [35] 111% | viability, T/C [36] 57%
